Assay results reported in patent US6737383B1, “Herbicidal oxadiazolidines” (priority 1999, dated 2004).

Tests used:
duck salad = assay: Test B flood test duck salad; type: in vivo, Heteranthera limosa; conditions: for Plant response rating, Ducksalad: scale 0 to 10, 0 is no effect, 10 is complete control; for Ducksalad plant response rating: scale of 0 to 10 where 0 is no effect and 10 is complete control
Procedure, shortened: (§1)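 Each value is a visual injury score relative to controls, with 10 meaning complete control and 0 no effect. Evaluation took place twelve to sixteen days after the 2-leaf-stage plants were treated and kept in the greenhouse.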

morningglory = assay: Test B pre/postemergence morningglory; type: in vivo, Ipomoea hederacea
Procedure, shortened: (§2)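 Herbicidal effect was estimated by eye on a ten-point control scale after plants spent twelve to sixteen days in a greenhouse following soil or foliar treatment. Foliar sprays targeted plants at one to four leaves; all doses were formulated in a non-phytotoxic solvent with surfactant.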

wild oat = assay: Test B pre/postemergence wild oat; type: in vivo, Avena fatua
Procedure, shortened: as §2

bamyardgrass = assay: Test B flood test barnyardgrass; type: in vivo, Echinochloa crus-galli; conditions: for Plant response rating, Barnyardgrass: scale 0 to 10, 0 is no effect, 10 is complete control; for Barnyardgrass plant response rating: scale of 0 to 10 where 0 is no effect and 10 is complete control
Procedure, shortened: as §1

rice = assay: Test B flood test rice; type: in vivo, Oryza sativa
Procedure, shortened: as §1

sugar beet = assay: Test B pre/postemergence sugar beet; type: in vivo, Beta vulgaris
Procedure, shortened: as §2

purple nutsedge = assay: Test B pre/postemergence purple nutsedge; type: in vivo, Cyperus rotundus
Procedure, shortened: as §2

smallflower flatsedge = assay: Test B flood test smallflower flatsedge; type: in vivo, Cyperus difformis
Procedure, shortened: as §1

wheat = assay: Test B pre/postemergence wheat; type: in vivo, Triticum aestivum
Procedure, shortened: as §2

cocklebur = assay: Test B pre/postemergence cocklebur; type: in vivo, Xanthium strumarium
Procedure, shortened: as §2

crabgrass = assay: Test B pre/postemergence crabgrass; type: in vivo, Digitaria sanguinalis
Procedure, shortened: as §2

bedstraw = assay: Test B pre/postemergence bedstraw; type: in vivo, Galium aparine; conditions: Postemergence
Procedure, shortened: as §2

corn = assay: Test B pre/postemergence corn; type: in vivo, Zea mays
Procedure, shortened: as §2

surinam grass = assay: Test B pre/postemergence surinam grass; type: in vivo, Brachiaria decumbens
Procedure, shortened: as §2

velvetleaf = assay: Test B pre/postemergence velvetleaf; type: in vivo, Abutilon theophrasti
Procedure, shortened: as §2

blackgrass = assay: Test B pre/postemergence blackgrass; type: in vivo, Alopecurus myosuroides
Procedure, shortened: as §2

soybean = assay: Test B pre/postemergence soybean; type: in vivo, Glycine max
Procedure, shortened: as §2

pigweed = assay: Test B pre/postemergence pigweed; type: in vivo, Amaranthus retroflexus
Procedure, shortened: as §2

rape = assay: Test B pre/postemergence rape; type: in vivo, Brassica napus
Procedure, shortened: as §2

giant foxtail = assay: Test B pre/postemergence giant foxtail; type: in vivo, Setaria faberii
Procedure, shortened: as §2

[1] = Postemergence (flood test), Rate 125 g/ha
[2] = Postemergence section (flood test species), Rate 500 g/ha
[3] = Rate 62 g/ha, Postemergence (flood test species)
[4] = flood test species, listed under Postemergence, Rate 250 g/ha
[5] = Postemergence, Rate 250 g/ha, scale 0 to 10, 0 is no effect, 10 is complete control
[6] = Postemergence, Rate 500 g/ha, scale of 0 to 10 where 0 is no effect and 10 is complete control
[7] = Preemergence, Rate 62 g/ha, scale 0 to 10 (0 no effect, 10 complete control)
[8] = Preemergence, Rate 125 g/ha, scale of 0 to 10 where 0 is no effect and 10 is complete control
[9] = Preemergence, Rate 250 g/ha, scale 0 to 10, 0 is no effect, 10 is complete control
[10] = Preemergence, Rate 500 g/ha, scale 0 to 10, 0 is no effect, 10 is complete control
[11] = Postemergence section (flood test species), Rate 500 g/ha, scale of 0 to 10 where 0 is no effect and 10 is complete control
[12] = flood test species, listed under Postemergence, Rate 250 g/ha, scale 0 to 10, 0 is no effect, 10 is complete control
[13] = Postemergence, Rate 125 g/ha, scale 0 to 10, 0 is no effect, 10 is complete control
[14] = Rate 62 g/ha, Postemergence, scale of 0 to 10 where 0 is no effect and 10 is complete control
[15] = Preemergence, Rate 250 g/ha, scale of 0 to 10 where 0 is no effect and 10 is complete control

## CC(C)N(C(=O)n1oc(=O)n(C2CCOCC2)c1=O)c1ccccc1 [Compound 416]
Duck salad; [1]
  Plant response rating, Ducksalad: 0
Duck salad; [2]
  Ducksalad plant response rating: 0
Duck salad; [3]
  Ducksalad plant response rating: 0
Duck salad; [4]
  Plant response rating, Ducksalad: 0
morningglory; [5]
  Plant response rating, Morningglory: 9
morningglory; [6]
  Morningglory plant response rating: 9
morningglory; [7]
  Plant response rating, Morningglory: 0
morningglory; [8]
  Plant response rating, Morningglory: 4
morningglory; [9]
  Morningglory plant response rating: 6
morningglory; [10]
  Morningglory plant response rating: 8
Wild oat; [6]
  Wild oats plant response rating: 7
Wild oat; [7]
  Plant response rating, Wild oats: 6
Wild oat; [8]
  Plant response rating, Wild oats: 7
Wild oat; [9]
  Wild oats plant response rating: 8
Wild oat; [10]
  Wild oats plant response rating: 10
bamyardgrass; [1]
  Plant response rating, Barnyardgrass: 0
bamyardgrass; [2]
  Barnyardgrass plant response rating: 0
bamyardgrass; [3]
  Barnyardgrass plant response rating: 0
bamyardgrass; [4]
  Plant response rating, Barnyardgrass: 0
rice; [11]
  Rice plant response rating: 0
rice; [12]
  Plant response rating, Rice: 0
Sugar beet; [5]
  Plant response rating, Sugarbeets: 0
Sugar beet; [6]
  Sugarbeets plant response rating: 2
Sugar beet; [7]
  Plant response rating, Sugarbeets: 3
Sugar beet; [8]
  Plant response rating, Sugarbeets: 4
Sugar beet; [9]
  Sugarbeets plant response rating: 7
Sugar beet; [10]
  Sugarbeets plant response rating: 9
Purple nutsedge; [5]
  Plant response rating, Nutsedge: 0
Purple nutsedge; [6]
  Nutsedge plant response rating: 0
Purple nutsedge; [7]
  Plant response rating, Nutsedge: 0
Purple nutsedge; [8]
  Plant response rating, Nutsedge: 0
Purple nutsedge; [9]
  Nutsedge plant response rating: 3
Purple nutsedge; [10]
  Nutsedge plant response rating: 4
Smallflower flatsedge; [11]
  S. Flatsedge plant response rating: 0
Smallflower flatsedge; [12]
  Plant response rating, S. Flatsedge: 0
wheat; [6]
  Wheat plant response rating: 7
wheat; [7]
  Plant response rating, Wheat: 2
wheat; [8]
  Plant response rating, Wheat: 4
wheat; [9]
  Wheat plant response rating: 7
wheat; [10]
  Wheat plant response rating: 10
cocklebur; [13]
  Plant response rating, Cocklebur: 0
cocklebur; [5]
  Plant response rating, Cocklebur: 0
cocklebur; [6]
  Cocklebur plant response rating: 5
cocklebur; [7]
  Plant response rating, Cocklebur: 0
cocklebur; [8]
  Plant response rating, Cocklebur: 0
cocklebur; [9]
  Cocklebur plant response rating: 0
cocklebur; [10]
  Cocklebur plant response rating: 4
cocklebur; [14]
  Cocklebur plant response rating: 0
crabgrass; [13]
  Plant response rating, Crabgrass: 6
crabgrass; [5]
  Plant response rating, Crabgrass: 9
crabgrass; [6]
  Crabgrass plant response rating: 9
crabgrass; [7]
  Plant response rating, Crabgrass: 7
crabgrass; [8]
  Plant response rating, Crabgrass: 10
crabgrass; [9]
  Crabgrass plant response rating: 10
crabgrass; [10]
  Crabgrass plant response rating: 10
crabgrass; [14]
  Crabgrass plant response rating: 2
bedstraw; Rate 125 g/ha, scale 0 to 10, 0 is no effect, 10 is complete control
  Plant response rating, Bedstraw: 3
bedstraw; Rate 500 g/ha, scale of 0 to 10 where 0 is no effect and 10 is complete control
  Bedstraw plant response rating: 7
corn; [13]
  Plant response rating, Corn: 0
corn; [5]
  Plant response rating, Corn: 5
corn; [6]
  Corn plant response rating: 7
corn; [7]
  Plant response rating, Corn: 0
corn; [8]
  Plant response rating, Corn: 0
corn; [9]
  Corn plant response rating: 3
corn; [10]
  Corn plant response rating: 6
corn; [14]
  Corn plant response rating: 0
Surinam grass; [13]
  Plant response rating, B. signalgrass: 6
Surinam grass; [5]
  Plant response rating, B. signalgrass: 8
Surinam grass; [6]
  B. signalgrass plant response rating: 9
Surinam grass; [7]
  Plant response rating, B. signalgrass: 7
Surinam grass; [8]
  Plant response rating, B. signalgrass: 7
Surinam grass; [15]
  B. signalgrass plant response rating: 7
Surinam grass; Preemergence, Rate 500 g/ha, scale of 0 to 10 where 0 is no effect and 10 is complete control
  B. signalgrass plant response rating: 9
Surinam grass; [14]
  B. signalgrass plant response rating: 2
velvetleaf; [5]
  Plant response rating, Velvetleaf: 0
velvetleaf; [6]
  Velvetleaf plant response rating: 6
velvetleaf; [7]
  Plant response rating, Velvetleaf: 0
velvetleaf; [8]
  Plant response rating, Velvetleaf: 3
velvetleaf; [9]
  Velvetleaf plant response rating: 6
velvetleaf; [10]
  Velvetleaf plant response rating: 8
blackgrass; [13]
  Plant response rating, Blackgrass: 9
blackgrass; [5]
  Plant response rating, Blackgrass: 9
blackgrass; [6]
  Blackgrass plant response rating: 9
blackgrass; [7]
  Plant response rating, Blackgrass: 8
blackgrass; [8]
  Plant response rating, Blackgrass: 9
blackgrass; [15]
  Blackgrass plant response rating: 10
blackgrass; [10]
  Blackgrass plant response rating: 10
blackgrass; [14]
  Blackgrass plant response rating: 6
soybean; [5]
  Plant response rating, Soybean: 6
soybean; [6]
  Soybean plant response rating: 7
soybean; [7]
  Plant response rating, Soybean: 0
soybean; [8]
  Plant response rating, Soybean: 4
soybean; [9]
  Soybean plant response rating: 7
soybean; [10]
  Soybean plant response rating: 9
pigweed; [5]
  Plant response rating, Redroot pigweed: 2
pigweed; [6]
  Redroot pigweed plant response rating: 7
pigweed; [7]
  Plant response rating, Redroot pigweed: 7
pigweed; [8]
  Plant response rating, Redroot pigweed: 9
pigweed; [9]
  Redroot pigweed plant response rating: 10
pigweed; [10]
  Redroot pigweed plant response rating: 10
rape; [5]
  Plant response rating, Rape: 3
rape; [6]
  Rape plant response rating: 3
rape; [7]
  Plant response rating, Rape: 7
rape; [8]
  Plant response rating, Rape: 9
rape; [9]
  Rape plant response rating: 9
rape; [10]
  Rape plant response rating: 10
Giant foxtail; [13]
  Plant response rating, Giant foxtail: 8
Giant foxtail; [5]
  Plant response rating, Giant foxtail: 9
Giant foxtail; [6]
  Giant foxtail plant response rating: 9
Giant foxtail; [7]
  Plant response rating, Giant foxtail: 8
Giant foxtail; [8]
  Plant response rating, Giant foxtail: 10
Giant foxtail; [9]
  Giant foxtail plant response rating: 10
Giant foxtail; [10]
  Giant foxtail plant response rating: 10
Giant foxtail; [14]
  Giant foxtail plant response rating: 7
